Reference: patent publication US7666617B2, “Devices and methods for profiling enzyme substrates” (University of Maryland, Baltimore County, priority 2005, dated 2010)

What was measured:
endogenous kinase NM23 = assay: Endogenous NM23 kinase signal (internal control) in the CK2α reverse in-gel kinase assay; settings: 75 μM apigenin in assay buffer; LNCaP lysate
Experimental: 300 μg of LNCaP lysate was treated with bacteriophage λ phosphatase at 30° C. for 1 hour. The lysate was then precipitated with TCA, resolublized in IEF rehydration buffer and applied to CKα reverse in-gel kinase assay with 25 μg of recombinant human CK2α cast in the gel. 75 μM apigenin was added in the reverse in-gel kinase assay buffer and a parallel assay was performed with same volume of vehicle (DMSO) added to the reaction buffer.

Protein Kinase A (PKA) = assay: PKA RIKA of TBB-treated LNCaP cell extract; assay type: cell-based; settings: TBB-treated vs vehicle-treated LNCaP lysate; RIKA gel with 50 μg/ml recombinant PKA
Experimental: FIG. 8A-8B, an equivalent mass of protein used for the RIKA shown in FIGS. 7A-7E was applied to a RIKA gel containing 50 μg/ml recombinant PKA. Arrows designates the activity of the endogenous kinase NM23 H1 which serves as an internal control. FIG. 8A is an autoradiogram of the PKA RIKA using the vehicle-treated lysates.

Structure (SMILES) | effect on endogenous kinase NM23 signal (endogenous kinase NM23) | signal intensity of proteins detected in PKA RIKA, TBB-treated extract (Protein Kinase A (PKA))
O=c1cc(-c2ccc(O)cc2)oc2cc(O)cc(O)c12 [Apigenin, apigenin] | not affected | –
Brc1c(Br)c(Br)c2[nH]nnc2c1Br [TBB, 4,5,6,7 tetrabromobenzotriazole] | – | No increase
